pEC50: −log10 of the molar value. Converted amounts (≈) assume the structure as drawn. “And” between values parts separate entries of the source, which are not always exact repeats. Identical values can stand only once. Like-named read-outs stand apart in the source and are kept apart here. Starred links: 1 amine or outer side, 2 acyl side, 3 side chain; linkers in the order of their positions; H or OH if unused. Non-standard residues stand in square brackets, D forms with d. Residues, ends and D or L forms follow the SMILES beside them. X2 = O=C(C(CCCc1ccccc1)(CCCc1ccccc1)CN[*:1])[*:2]; X5 = O=C(C(CCC1CCCCC1)(CCC1CCCCC1)CN[*:1])[*:2]; X3 = O=C(C(CN[*:1])(Cc1ccccc1)Cc1ccccc1)[*:2]
Key:
Type in all cases: cell-based
[1] = test system: Staphylococcus aureus (ATTC 25923); experiment: microbe, parasite or virus in culture; details: for MIC: Staphylococcus aureus; for Therapeutic index S. aureus: EC50 RBC divided by MIC
Procedure: (§1) The antimicrobial testing was conducted by TosLab A/S (Tromsø, Norway). Each compound was diluted to 1 mg/ml in water and tested in duplicates at 200, 100, 50, 35, 15, 10, 5, 2.5, 1, 0.5 μg/ml except 4n which was tested at 50, 35, 15, 10, 5, 2.5, 1, 0.5 μg/ml due to solubility problems. All tested compounds were di TFA salts.
(§2) The bacterial strains were grown in 2% Bacto Peptone water until exponential growth was achieved. […] A bacterial concentration of 2×10^6 cfu/ml was used. Both negative control (no peptide) and positive control (Gentamicin) was used for all bacterial strains. Growth or no growth was judged by the turbidity of the wells.
Staphylococcus aureus (ATTC 25923)
(§3) Antimicrobial assays: 200 μg/ml
(§4) Suitable methodologies are described in Example 1.
(§5) Each compound was tested in duplicates at 200, 100, 50, 35, 15, 10, 5, 2.5, 1, 0.5 μg/ml. All tested compounds were di-trifluoroacetic acid salts.

[2] = test system: methicillin resistant Staphylococcus aureus (ATCC 33591); experiment: microbe, parasite or virus in culture; details: for MIC: Staphylococcus aureus; for Therapeutic index MRSA: EC50 RBC divided by MIC
Procedure: as §1, §2
Methicillin resistant Staphylococcus aureus (ATCC 33591)
as §3, §4, §5

[3] = test system: methicillin resistant Staphylococcus epidermidis (ATCC 27626); experiment: microbe, parasite or virus in culture; details: for MIC: Staphylococcus epidermidis, ATCC 27626 / MRSE; for Therapeutic index MRSE: EC50 RBC divided by MIC
Procedure: as §1, §2
Methicillin resistant Staphylococcus epidermidis (ATCC 27626)
as §3, §4, §5

[4] = test system: Escherichia coli (ATTC 25922); experiment: microbe, parasite or virus in culture; details: for MIC: Escherichia coli; for Therapeutic index E. coli: EC50 RBC divided by MIC
Procedure: as §1, §2
Escherichia coli (ATTC 25922)
as §3, §4, §5

[5] = test system: human red blood cells; experiment: cells; details: Erythrocyte, highest concentration tested 1000 μg/ml; for EC50: Homo sapiens, Example 2, * low solubility in the test media, read-out: Toxicity RBC (EC50); for pEC50: Example 4, hemolytic activity, human red blood cells, read-out: EC50 RBC
Procedure: The hemolytic testing against human erythrocytes was conducted by Lytix Biopharma A/S (Tromso, Norway). Each compound was tested from a concentration of 1 mg/ml and lower, except 4k and 4n which was only tested up to 0.5 mg/ml due to solubility problems. 8 mL of blood was collected from adult healthy male donors. The blood was divided equally and distributed in a commercial available EDTA containing test tube (BD vacutainer, 7.2 mg K2 EDTA) and in a 10 mL reaction vial containing 40 μL of a heparin solution (1000 U/mL in 0.9% sodium chloride). After 30 minutes the hematocrit of the EDTA treated blood was determined. The heparinized blood was centrifuged for 10 minutes at 1500 rpm and the supernatant removed. Subsequently the RBCs were washed with prewarmed PBS three times, and diluted to 10% hematocrit. The compounds dissolved in PBS (concentration 1 μg/mL to 1000 µg/mL) and the erythrocytes were incubated under agitation at 37° C. for one hour. A positive control with an end concentration of 0.1% TRITON X-100 (nonionic surfactant) and a negative control containing pure PBS buffer were included. The samples were centrifuged (4000 rpm) for 5 minutes and the absorption of the supernatant was measured at 405 nm. The values given in Table 1A correspond to 50% hemolysis.
The plasma fraction of heparinized human blood was first removed by centrifugation and three additional washing steps with 37° C. pre-warmed phosphate buffered saline (PBS). Subsequently, the human RBC were diluted to 10% hematocrit and the β^2,2-amino acid derivatives were dissolved in PBS providing concentrations ranging from 1-1000 μg/mL. The diluted RBC were added to the compound solutions to a final erythrocyte concentration of 1% v/v. PBS and TRITON X-100 (non-ionic surfactant), in a final concentration of 0.1% v/v, were included as negative and positive control. After 1 hour agitated incubation at 37° C. the samples were centrifuged at 4000 rpm for 5 min. Release of hemoglobin was determined by measuring the absorbance of the supernatant at 405 nm. Hemolytic activity was calculated as the ratio of treated sample with β^2,2-amino acid derivative and tenside treated sample according to the formula: […]

[6] = test system: MRC-5; experiment: Toxicity assay MRC-5; details: highest concentration tested 500 μg/ml; for IC50: Homo sapiens, MRC5, Example 2; for Toxicity MRC-5: Example 2
Procedure: Cells for Toxicity Studies Used MRC-5 and human RBC MRC-5 assay: 500 μg/ml

[7] = test system: A20; experiment: cells; details: for Anti-Cancer Selectivity MRC-5/A20: ratio of MRC-5 to A20 values
Procedure: Cancer Cell Lines A20 or MethA Anticancer assays: 500 μg/ml

[8] = Example 2, values separated by / are repeat tests, read-out: Antimicrobial potency (MIC) S. aureus
[9] = ATCC 33591 / MRSA, Example 2, values separated by / are repeat tests, read-out: Antimicrobial potency (MIC) MRSA
[10] = Example 2, values separated by / are repeat tests, read-out: Antimicrobial potency (MIC) MRSE
[11] = Example 2, values separated by / are repeat tests, read-out: Antimicrobial potency (MIC) E. coli
[12] = Example 2, values separated by / are repeat tests
[13] = ATCC25923, Example 4, ATCC 25923, di-trifluoroacetate salts, highest concentration tested 200 μg/ml, read-out: MIC S. aureus
[14] = ATCC33591, Example 4, ATCC 33591, di-trifluoroacetate salts, highest concentration tested 200 μg/ml, read-out: MIC MTRSA
[15] = Example 4, ATCC 27626, di-trifluoroacetate salts, highest concentration tested 200 μg/ml, read-out: MIC MRSE
[16] = ATCC25922, Example 4, ATCC 25922, di-trifluoroacetate salts, highest concentration tested 200 μg/ml, read-out: MIC E. coli

SMILES	MIC [1, 8] [µg/mL]	MIC [2, 9] [µg/mL]	MIC [3, 10] [µg/mL]	MIC [1, 13] [µM]	MIC [2, 14] [µM]	MIC [3, 15] [µM]	MIC [4, 16] [µM]	EC50 [5] [µg/mL]	IC50 [6] [µg/mL]	Toxicity MRC-5 [6]	Anti-Cancer Selectivity MRC-5/A20 [7]	Therapeutic index S. aureus [1]	Therapeutic index MRSA [2]	Therapeutic index MRSE [3]	Therapeutic index E. coli [4]	pEC50 [5]	also measured
NCCNC(=O)C(CN)(CCc1ccccc1)CCc1ccccc1 [Compound 5, N-(2-aminoethyl)-2-(aminomethyl)-2-phenethyl-4-phenylbutanamide]	100	100	50	–	–	–	–	> 1000	21.5 (≈ 63.3 µM)	–	–	–	–	–	–	–	MIC [4, 11]: > 200 µg/mL
Cc1ccc(CC(CN)(Cc2ccc(C)cc2)C(=O)NCCN)cc1 [Compound 8, 3-amino-N-(2-aminoethyl)-2,2-bis(4-methylbenzyl)propanamide]	200	100	100	–	–	–	–	> 1000	26 (≈ 76.6 µM)	44 µg/mL	–	–	–	–	–	–	MIC [4, 11]: > 200 µg/mL
COc1cc(CC(CN)(Cc2cc(OC)cc(OC)c2)C(=O)NCCN)cc(OC)c1 [Compound 13, 3-amino-N-(2-aminoethyl)-2,2-bis(3,5-dimethoxy-benzyl)propanamide]	200	200	100	–	–	–	–	> 1000	62.5 (≈ 145 µM)	68 µg/mL	–	–	–	–	–	–	MIC [4, 11]: > 200 µg/mL
CC(C)(C)c1cc(CC(CN)(Cc2cc(C(C)(C)C)cc(C(C)(C)C)c2)C(=O)NCCN)cc(C(C)(C)C)c1 [Compound 14, 3-amino-N-(2-aminoethyl)-2,2-bis(3,5-di-tert-butylbenzyl)propanamide]	3.75	2.5	2.5	–	–	–	–	> 62.5	7.5 (≈ 14 µM)	8.5 µg/mL	–	–	–	–	–	–	Antimicrobial potency (MIC) S. aureus [1, 12]: 5 µg/mL; Antimicrobial potency (MIC) MRSE [3, 12]: 5 µg/mL
NCCCC[C@@H](N)C(=O)N[C@H](CCCCN)C(=O)N[C@H](Cc1c[nH]c2ccccc12)C(=O)NCC(CCC1CCCCC1)(CCC1CCCCC1)C(=O)N[C@@H](Cc1c[nH]c2ccccc12)C(=O)N[C@@H](CCCCN)C(=O)N[C@@H](CCCCN)C(N)=O [Compound 15, (R)-N-((2R,9S,12S,15S)-9-((1H-indol-3-yl)methyl)-19-amino-12-(4-aminobutyl)-15-carbamoyl-6,6-bis(2-cyclohexylethyl)-1-(1H-indol-3-yl)-3,7,10,13-tetraoxo-4,8,11,14-tetraazanonadecan-2-yl)-6-amino-2-((R)-2,6-diaminohexanamido)hexanamide] (H-[dK][dK][dW][X5]WKK-NH2)	–	–	–	–	–	–	–	–	–	45.7 µg/mL	3.0	–	–	–	–	–	Anticancer potency (IC50) A20 [7]: 15.0 µg/mL
NCCCC[C@@H](N)C(=O)N[C@H](CCCCN)C(=O)N[C@H](Cc1c[nH]c2ccccc12)C(=O)NCC(Cc1ccccc1)(Cc1ccccc1)C(=O)N[C@@H](Cc1c[nH]c2ccccc12)C(=O)N[C@@H](CCCCN)C(=O)N[C@@H](CCCCN)C(N)=O [Compound 16, (R)-N-((2R,9S,12S,15S)-9-((1H-indol-3-yl)methyl)-19-amino-12-(4-aminobutyl)-6,6-dibenzyl-15-carbamoyl-1-(1H-indol-3-yl)-3,7,10,13-tetraoxo-4,8,11,14-tetraazanonadecan-2-yl)-6-amino-2-((R)-2,6-diaminohexanamido)hexanamide] (H-[dK][dK][dW][X3]WKK-NH2)	–	–	–	–	–	–	–	–	–	>500 µg/mL	(>1.9)	–	–	–	–	–	Anticancer potency (IC50) A20 [7]: 263 µg/mL
NCCCC[C@@H](N)C(=O)N[C@H](CCCCN)C(=O)N[C@H](Cc1c[nH]c2ccccc12)C(=O)NCC(CCCc1ccccc1)(CCCc1ccccc1)C(=O)N[C@@H](Cc1c[nH]c2ccccc12)C(=O)N[C@@H](CCCCN)C(=O)N[C@@H](CCCCN)C(N)=O [Compound 17, (R)-N-((2R,9S,12S,15S)-9-((1H-indol-3-yl)methyl)-19-amino-12-(4-aminobutyl)-15-carbamoyl-1-(1H-indol-3-yl)-3,7,10,13-tetraoxo-6,6-bis(3-phenylpropyl)-4,8,11,14-tetraazanonadecan-2-yl)-6-amino-2-((R)-2,6-diaminohexanamido)hexanamide] (H-[dK][dK][dW][X2]WKK-NH2)	–	–	–	–	–	–	–	–	–	241 µg/mL and 221 µg/mL	9.1 and 5.5	–	–	–	–	–	–
NCCCC[C@@H](N)C(=O)N[C@H](CCCCN)C(=O)N[C@H](Cc1c[nH]c2ccccc12)C(=O)NCC(Cc1ccc2ccccc2c1)(Cc1ccc2ccccc2c1)C(=O)N[C@@H](Cc1c[nH]c2ccccc12)C(=O)N[C@@H](CCCCN)C(=O)N[C@@H](CCCCN)C(N)=O [Compound 18, (R)-N-((2R,9S,12S,15S)-9-((1H-indol-3-yl)methyl)-19-amino-12-(4-aminobutyl)-15-carbamoyl-1-(1H-indol-3-yl)-6,6-bis(naphthalen-2-ylmethyl)-3,7,10,13-tetraoxo-4,8,11,14-tetraazanonadecan-2-yl)-6-amino-2-((R)-2,6-diaminohexanamido)hexanamide]	–	–	–	–	–	–	–	–	–	103 µg/mL	4.3	–	–	–	–	–	Anticancer potency (IC50) A20 [7]: 24 µg/mL

Further lines, with some results ahead:

MIC [1, 8] [µg/mL]	MIC [2, 9] [µg/mL]	MIC [3, 10] [µg/mL]	MIC [1, 13] [µM]	MIC [2, 14] [µM]	MIC [3, 15] [µM]	MIC [4, 16] [µM]	SMILES	EC50 [5] [µg/mL]	IC50 [6] [µg/mL]	Toxicity MRC-5 [6]	Anti-Cancer Selectivity MRC-5/A20 [7]	Therapeutic index S. aureus [1]	Therapeutic index MRSA [2]	Therapeutic index MRSE [3]	Therapeutic index E. coli [4]	pEC50 [5]	also measured
–	–	–	49	14	70	70	CN1CCN(C(=O)C(CN)(Cc2ccc(C(F)(F)F)cc2)Cc2ccc(C(F)(F)F)cc2)CC1 [Entry 5b]	–	–	–	–	11	38	7.5	7.5	3.28	–
–	–	–	56	56	56	160	CN(C)CCNC(=O)C(CN)(CCCc1ccccc1)CCCc1ccccc1 [Entry 6a]	–	–	–	–	9.1	9.1	9.1	3.2	3.29	–
–	–	–	14	7.1	21	50	CN(C)CCNC(=O)C(CN)(Cc1ccc(C(F)(F)F)cc1)Cc1ccc(C(F)(F)F)cc1 [Entry 6b]	–	–	–	–	33	66	22	9.4	3.33	–
–	–	–	71	59	25	336	NCCNC(=O)C(CN)(CCCc1ccccc1)CCCc1ccccc1 [Entry 7a]	–	–	–	–	19	23	55	4.1	2.86	–
–	–	–	15	7.4	15	52	NCCNC(=O)C(CN)(Cc1ccc(C(F)(F)F)cc1)Cc1ccc(C(F)(F)F)cc1 [Entry 7b]	–	–	–	–	28	57	28	8	3.37	–

Source: US8809280B2, “Therapeutic peptides” (Lytix Biopharma AS, priority 2009, dated 2014)
